US20210369720A1, “SYNERGISTIC COMPOSITION HAVING NEUROPROTECTIVE PROPERTIES AND METHODS OF USE THEREOF” (Rutgers, The State University of New Jersey, priority 2018, published 2021)

Experiments:
c-fos = test: Immunohistochemical staining of c-fos in the hippocampus, Syn^Tg mice; assay type: in vivo; conditions: EHT 12 mg/kg/day and/or caffeine 50 mg/kg/day until six months of age
Text: Thy1-α-synuclein transgenic mice (Syn^Tg) on BDF1 background overexpressing human wild-type α-synuclein under the control of the Thy1 promoter were maintained by mating heterozygous transgenic females with WT BDF1 males (Rockenstein E, et al. (2002) Differential neuropathological alterations in transgenic mice expressing alpha-synuclein from the platelet-derived growth factor and Thy-1 promoters. J Neurosci Res 68(5):568-578). BDF1 mice (mixed C57BL/6-DBA/2) were generated every three months by mating female C57BL/6 (The Jackson Laboratory) and male DBA/2 mice (Charles River). Experiments were performed with male transgenic mice and their WT littermates. […] Wild-type littermates received regular water and control chow. […] At two months of age, mice were inoculated with α-Syn PFF unilaterally in the striatum. These treatments continued throughout the experiment until animals were sacrificed. Mice were weighed and their food and water intake was quantified weekly. […]
Vectastain elite ABC kit (Vector Laboratories, Burlingame, Calif.) and 3,3′-diaminobenzidine (Sigma-Aldrich) were used for amplifying and color development. […] For other stains, the whole microscopic field was analyzed. For p-α-Syn stains in the cortex, four matching regions in each of two sections per animal were counted.

p-α-Syn = test: Western blot of p-α-Syn in SH-SY5Y cells challenged with α-Syn PFF; assay type: cell-based, Human; conditions: SH-SY5Y cells challenged with mouse α-Syn PFF for 7 days; caffeine and/or EHT added to the medium
Method: Human neuroblastoma SH-SY5Y cells were cultured in DMEM-F12 with 10% FBS. At 50% confluency, cells were treated with 1 gg/ml mouse α-Syn PFF in DMEM-F12 with 1% FBS for 7 days. Medium was refreshed every 3 days. Cell harvesting was done with 2% SDS in PBS supplemented with protease inhibitor (Millipore) and phosphatase inhibitor (Sigma-Aldrich). Lysates were sonicated and boiled at 95° C. for 5 minutes. Protein concentration was determined by bicinchonic acid (BCA) method (Pierce), equal amount of protein was separated on 5-20% SDS-PAGE gel (Genescript) and transferred to nitrocellulose or PVDF membrane (Biorad). Following transfer, membranes were blocked for 1 hour at room temperature in blocking buffer (Li-Cor) or 5% (w/v) BSA/TBS-Tween 0.1% (v/v). Primary antibodies were diluted in blocking buffer or 5% (w/v) BSA/TBS-Tween 0.1% (v/v) and incubated with the membranes at 4° C. overnight. Membranes were washed three times in TBS-Tween and incubated in diluted IRDye 800CW or HRP conjugated secondary antibody for 1 hour at room temperature. Following washing, membranes were scanned by Li-Cor Odyssey CLx infrared imaging system or treated with the Western Lightning ECL-plus reagents (PerkinElmer) and exposed to autoradiography films (LabScientific).

PP2A = test: Western blot of PP2A methylation, ipsilateral striatal tissue lysates of α-Syn PFF inoculated mice; assay type: in vivo; conditions: EHT 12 mg/kg/day and/or caffeine 50 mg/kg/day, vs untreated α-Syn PFF inoculated mice
Text: Thy1-α-synuclein transgenic mice (Syn^Tg) on BDF1 background overexpressing human wild-type α-synuclein under the control of the Thy1 promoter were maintained by mating heterozygous transgenic females with WT BDF1 males (Rockenstein E, et al. (2002) Differential neuropathological alterations in transgenic mice expressing alpha-synuclein from the platelet-derived growth factor and Thy-1 promoters. J Neurosci Res 68(5):568-578). BDF1 mice (mixed C57BL/6-DBA/2) were generated every three months by mating female C57BL/6 (The Jackson Laboratory) and male DBA/2 mice (Charles River). Experiments were performed with male transgenic mice and their WT littermates. […] Wild-type littermates received regular water and control chow. […] At two months of age, mice were inoculated with α-Syn PFF unilaterally in the striatum. These treatments continued throughout the experiment until animals were sacrificed. Mice were weighed and their food and water intake was quantified weekly. Animals were housed 2-5/cage in an AAALAC approved facility in a temperature- and humidity-controlled environment under a 12-hour light/dark cycle and were maintained on a diet of lab chow and water ad libitum. All animal procedures were approved by the Rutgers-Robert Wood Johnson Medical School Institutional Animal Care and Use Committee and were performed according to the National Institutes of Health Guide for the Care and Use of Laboratory Animals.
α-Syn PFF solution was sonicated at 60% amplitude 30 times (0.5 sec on, 0.5 sec off). During the stereotactic surgery, two month old WT C57BL/6 mice were anesthetized by Ketamine/xylazine (90/4.5 mg/kg, i.p., Ketaset from Zoetis, and Anased from Akorn) and positioned in a digital stereotaxic apparatus (Stoelting, Wood Dale, Ill.). […]
Human neuroblastoma SH-SY5Y cells were cultured in DMEM-F12 with 10% FBS. […] Protein concentration was determined by bicinchonic acid (BCA) method (Pierce), equal amount of protein was separated on 5-20% SDS-PAGE gel (Genescript) and transferred to nitrocellulose or PVDF membrane (Biorad). […]

**Q.** Which results are given for `CCCCCCCCCCCCCCCCCCCC(=O)NCCc1c[nH]c2ccc(O)cc12` [EHT, eicosanoyl-5-hydroxytryptamide]?
**A.** c-fos immunoreactivity in the hippocampus (c-fos): failed to increase c-fos immunoreactivity significantly; p-α-Syn levels (p-α-Syn): reduced it partially; methyl- to demethyl-PP2A ratio (PP2A): insignificant increase; methyl-PP2A levels (PP2A): insignificant increase
